Measurements published in patent US9855265B2, “Methods for treating cancer with TrkA receptor tyrosine kinase antagonists” (VM Oncology LLC, priority 2014, dated 2018).
pIC50: −log10 of the molar value.

What was measured:
[1] = biological target: T1, TGFbR2 (Homo sapiens, UniProt P37173); assay: radiometric kinase assay, other kinases: TGFbR2; assay type: biochemical; settings: duplicate
T1 construct: other kinases of recombinant human cytoplasmic domain
Method: (§1) Compound inhibition in a radiometric based mixed micelle assay: In a final reaction volume of 25 μL, TrkA (h) ([…]) is incubated with the kinase reaction buffer (20 mM HEPES (pH 7.5), 10 mM MgCl2, 1 mM EGTA, 0.02% Brij 35, 0.02 mg/ml BSA, 0.1 mM Na3VO4, 2 mM DTT, 1% DMSO), 0.2 mg/ml substrate PolyEY(4:1) and […], and [^33P-ATP](specific activity approx. 500 cpm/pmol, concentration as required). The reaction is initiated by the addition of the MgATP mix. After incubation for at least 40 minutes at room temperature, the reaction is stopped by the addition of 5 μL of a 3% phosphoric acid solution. 10 μL of the reaction is then spotted onto a P30 filtermat and washed three times for 5 minutes in 75 mM phosphoric acid and once in methanol prior to drying and scintillation counting. TrkA: Recombinant Human Cytoplasmic Domain (amino acids 441-796), Histidine-tagged, expressed in insect cells. Activated in vitro via auto-phosphorylation. Mw=42.8 kDa. Substrates for kinases: poly(EY) for TRKA; poly(EY)(4:1) with 2 mM MnCl2, average Mw=16 kDa Standard conditions (unless otherwise specified): 30 nM TRKA, 0.2 mg/ml poly(EY)+2 mM MnCl2, and 10 μM ([γ-^33P]) ATP. Using the similar assay condition with other kinases of recombinant human cytoplasmic domain, the activities of other kinases could be also measured.

[2] = biological target: T2, MUSK (Homo sapiens, UniProt O15146); assay: radiometric kinase assay, other kinases: MUSK; assay type: biochemical; settings: duplicate
T2 construct: other kinases of recombinant human cytoplasmic domain
T2 sequence (O15146 517-869 limits assumed): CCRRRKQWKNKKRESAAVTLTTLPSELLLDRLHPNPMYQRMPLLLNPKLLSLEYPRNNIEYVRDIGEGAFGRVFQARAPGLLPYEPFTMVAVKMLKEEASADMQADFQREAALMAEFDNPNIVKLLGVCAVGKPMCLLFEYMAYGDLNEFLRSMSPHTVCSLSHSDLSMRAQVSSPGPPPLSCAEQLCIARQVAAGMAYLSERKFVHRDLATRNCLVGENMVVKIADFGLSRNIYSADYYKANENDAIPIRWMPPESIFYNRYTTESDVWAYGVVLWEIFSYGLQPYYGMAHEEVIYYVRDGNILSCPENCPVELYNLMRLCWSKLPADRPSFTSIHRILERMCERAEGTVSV
Method: as §1

[3] = biological target: PKCzeta (Homo sapiens, UniProt Q05513); assay: radiometric kinase assay, other kinases: PKCzeta; assay type: biochemical; settings: duplicate
Chain of PKCzeta (Q05513 whole entry): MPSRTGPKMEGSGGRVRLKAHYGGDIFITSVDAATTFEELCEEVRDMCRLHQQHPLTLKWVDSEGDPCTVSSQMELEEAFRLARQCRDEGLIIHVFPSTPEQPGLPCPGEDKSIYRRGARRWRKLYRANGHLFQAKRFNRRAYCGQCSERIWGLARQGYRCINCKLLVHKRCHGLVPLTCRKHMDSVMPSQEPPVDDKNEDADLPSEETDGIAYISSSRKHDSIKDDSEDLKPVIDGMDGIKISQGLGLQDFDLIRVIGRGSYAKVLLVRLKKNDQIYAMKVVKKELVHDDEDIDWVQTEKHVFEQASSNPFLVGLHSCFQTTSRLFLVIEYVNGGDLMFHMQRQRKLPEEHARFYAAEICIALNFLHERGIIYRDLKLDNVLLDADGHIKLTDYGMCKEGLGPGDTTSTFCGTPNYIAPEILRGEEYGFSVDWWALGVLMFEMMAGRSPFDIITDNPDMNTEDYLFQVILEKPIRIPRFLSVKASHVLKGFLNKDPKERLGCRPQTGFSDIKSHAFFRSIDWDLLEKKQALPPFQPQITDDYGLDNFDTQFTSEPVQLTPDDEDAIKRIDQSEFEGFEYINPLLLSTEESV
Method: as §1

[4] = tested on: BxPC-3 human pancreatic cancer cells; assay: Cell Viability and Proliferation Assay, BxPC-3; assay type: cell-based; settings: after 24 incubation
Method: (§2) Cell Viability and Proliferation Assays. To assess the chemosensitivity of tumor cells, cell viability is measured by CellTiter-Glo® Luminescent Cell Viability Assay (Promega; Wis., USA) per the manufacturer's instruction. Briefly, 5×10^3 to 7×10^5 cells/ml are cultured in sterile 96-well plates in the presence of increasing concentrations of the drugs (test article, 0 to 100 μM), or vehicle in RPMI medium. The plates are then incubated for 24 to 96 h, and then 100 μl of CellTiter-Glo reagent is added to lyse the cells. After a 10-min incubation at room temperature, the luminescence is recorded in a luminometer with an integration time of 1 s per well. The luminescence signals for the drug-treated cells are normalized by the luminescence signal obtained from vehicle-treated cells. As an alternative method to quantitate cell viability, the trypan blue exclusion dye method was used. Vehicle- or drug-treated cells were assayed by adding trypan blue solution (0.4% in phosphate-buffered saline [PBS]) to the culture medium. After 3 min, the number of dead cells that retained the dye is compared to the total number of cells to calculate cell viability. GraphPad Prism 5 software is used to calculate IC50 and plot effect-dose curve of drugs. Multiplate reader: EnVision 2104 (PerkinElmer). % of control variability=100*[(X(drug_treated)−L(baseline))/(H(vehicle_control)−L(baseline))]. […]

[5] = biological target: T3, EPHA1 (Homo sapiens, UniProt P21709); assay: radiometric kinase assay, other kinases: EPHA1; assay type: biochemical; settings: duplicate
T3 construct: other kinases of recombinant human cytoplasmic domain
T3 sequence (P21709 569-976 limits assumed): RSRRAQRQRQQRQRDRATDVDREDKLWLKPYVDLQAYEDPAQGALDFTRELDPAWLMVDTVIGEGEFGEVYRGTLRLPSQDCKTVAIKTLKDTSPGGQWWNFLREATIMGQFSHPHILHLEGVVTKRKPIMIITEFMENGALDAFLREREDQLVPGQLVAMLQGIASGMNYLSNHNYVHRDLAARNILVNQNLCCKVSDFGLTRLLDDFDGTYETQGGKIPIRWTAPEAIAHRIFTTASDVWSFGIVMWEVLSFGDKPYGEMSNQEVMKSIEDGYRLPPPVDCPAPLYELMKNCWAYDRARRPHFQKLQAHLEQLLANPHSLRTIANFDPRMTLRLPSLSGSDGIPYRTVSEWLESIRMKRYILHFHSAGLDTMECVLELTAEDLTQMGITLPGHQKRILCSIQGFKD
Method: as §1

[6] = biological target: T4, ALK5/TGFB-R1 (Homo sapiens, UniProt P36897); assay: radiometric kinase assay, other kinases: ALK5/TGFB-R1; assay type: biochemical; settings: duplicate
T4 construct: other kinases of recombinant human cytoplasmic domain
T4 sequence (P36897 148-503 limits assumed): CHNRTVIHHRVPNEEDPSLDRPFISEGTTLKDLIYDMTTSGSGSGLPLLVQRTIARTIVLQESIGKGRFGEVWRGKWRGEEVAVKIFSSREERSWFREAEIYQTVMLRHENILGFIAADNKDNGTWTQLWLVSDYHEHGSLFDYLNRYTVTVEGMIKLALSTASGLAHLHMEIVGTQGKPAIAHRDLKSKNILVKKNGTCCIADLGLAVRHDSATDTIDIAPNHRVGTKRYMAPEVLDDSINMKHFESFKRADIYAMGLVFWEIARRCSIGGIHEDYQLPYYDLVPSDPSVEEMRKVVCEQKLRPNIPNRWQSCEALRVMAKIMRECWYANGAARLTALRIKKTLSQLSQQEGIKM
Method: as §1

[7] = biological target: TrkB (Homo sapiens, UniProt Q16620); assay: live whole cell based functional assay, BDNF stimulated TrkB activation; parameters: expressed in transfected cells; settings: triplicate
Chain of TrkB (Q16620 32-822): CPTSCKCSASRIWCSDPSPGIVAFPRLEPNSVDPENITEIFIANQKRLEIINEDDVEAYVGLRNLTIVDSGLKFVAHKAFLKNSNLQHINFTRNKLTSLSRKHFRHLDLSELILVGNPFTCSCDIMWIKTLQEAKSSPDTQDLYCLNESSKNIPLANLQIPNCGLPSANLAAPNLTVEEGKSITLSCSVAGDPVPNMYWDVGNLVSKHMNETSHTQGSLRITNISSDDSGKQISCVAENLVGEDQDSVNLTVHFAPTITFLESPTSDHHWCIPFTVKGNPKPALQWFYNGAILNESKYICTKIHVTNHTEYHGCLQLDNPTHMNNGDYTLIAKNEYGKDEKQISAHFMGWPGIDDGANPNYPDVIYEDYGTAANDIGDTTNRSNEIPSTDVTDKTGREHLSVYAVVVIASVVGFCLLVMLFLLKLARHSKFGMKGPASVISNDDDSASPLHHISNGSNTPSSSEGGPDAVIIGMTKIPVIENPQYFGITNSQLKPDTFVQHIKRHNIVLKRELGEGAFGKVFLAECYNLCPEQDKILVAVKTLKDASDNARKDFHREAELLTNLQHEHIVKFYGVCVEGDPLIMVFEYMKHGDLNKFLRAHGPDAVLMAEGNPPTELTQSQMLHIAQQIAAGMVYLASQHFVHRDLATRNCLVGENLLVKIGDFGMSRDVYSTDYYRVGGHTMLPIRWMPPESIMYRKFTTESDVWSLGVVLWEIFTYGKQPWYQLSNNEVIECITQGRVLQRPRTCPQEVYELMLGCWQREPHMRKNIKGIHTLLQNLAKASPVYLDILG

[8] = biological target: T5, AXL (Homo sapiens, UniProt P30530); assay: radiometric kinase assay, other kinases: AXL; assay type: biochemical; settings: duplicate
T5 construct: other kinases of recombinant human cytoplasmic domain
T5 sequence (P30530 473-894 limits assumed): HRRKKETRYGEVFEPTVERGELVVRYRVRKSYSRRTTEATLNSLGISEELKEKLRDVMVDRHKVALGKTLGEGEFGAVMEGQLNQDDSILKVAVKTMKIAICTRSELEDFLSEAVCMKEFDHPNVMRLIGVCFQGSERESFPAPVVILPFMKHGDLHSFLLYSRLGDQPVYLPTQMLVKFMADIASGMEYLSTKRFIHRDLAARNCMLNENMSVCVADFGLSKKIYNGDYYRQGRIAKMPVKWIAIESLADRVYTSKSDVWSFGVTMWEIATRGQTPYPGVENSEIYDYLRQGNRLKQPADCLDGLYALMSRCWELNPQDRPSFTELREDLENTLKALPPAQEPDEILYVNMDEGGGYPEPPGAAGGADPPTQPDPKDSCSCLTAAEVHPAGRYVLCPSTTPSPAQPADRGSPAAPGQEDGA
Method: as §1

[9] = tested on: MIA PaCa-2 human pancreatic cancer cells; assay: Cell Viability and Proliferation Assay, MIA PaCa-2; assay type: cell-based; settings: after 24 incubation
Method: as §2

[10] = biological target: CDK1/cyclinB (Homo sapiens, UniProt P06493); assay: radiometric kinase assay, other kinases: CDK1/cyclinB; assay type: biochemical; settings: duplicate
Chain of CDK1/cyclinB (P06493 whole entry): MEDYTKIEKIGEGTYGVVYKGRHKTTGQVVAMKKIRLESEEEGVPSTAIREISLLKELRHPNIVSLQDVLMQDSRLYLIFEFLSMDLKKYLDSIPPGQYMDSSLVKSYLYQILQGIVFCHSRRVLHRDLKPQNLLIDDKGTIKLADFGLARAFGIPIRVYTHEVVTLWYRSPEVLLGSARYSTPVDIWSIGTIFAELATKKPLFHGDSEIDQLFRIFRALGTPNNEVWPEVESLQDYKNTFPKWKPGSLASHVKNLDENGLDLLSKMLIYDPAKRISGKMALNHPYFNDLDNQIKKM
Chain of CDK1/cyclinB (P14635 whole entry partner): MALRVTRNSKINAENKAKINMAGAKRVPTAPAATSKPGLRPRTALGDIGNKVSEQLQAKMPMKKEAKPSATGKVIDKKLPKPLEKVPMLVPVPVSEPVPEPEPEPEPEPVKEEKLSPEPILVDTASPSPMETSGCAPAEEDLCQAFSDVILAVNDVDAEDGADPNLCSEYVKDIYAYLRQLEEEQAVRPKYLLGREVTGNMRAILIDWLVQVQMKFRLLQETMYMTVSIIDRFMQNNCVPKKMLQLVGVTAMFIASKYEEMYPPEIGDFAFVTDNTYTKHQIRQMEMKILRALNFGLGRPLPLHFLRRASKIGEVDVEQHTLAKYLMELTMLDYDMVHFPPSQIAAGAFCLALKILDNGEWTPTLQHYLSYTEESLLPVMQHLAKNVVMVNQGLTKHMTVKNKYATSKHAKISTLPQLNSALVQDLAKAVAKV
Method: as §1

T1 sequence (P37173 188-567 limits assumed): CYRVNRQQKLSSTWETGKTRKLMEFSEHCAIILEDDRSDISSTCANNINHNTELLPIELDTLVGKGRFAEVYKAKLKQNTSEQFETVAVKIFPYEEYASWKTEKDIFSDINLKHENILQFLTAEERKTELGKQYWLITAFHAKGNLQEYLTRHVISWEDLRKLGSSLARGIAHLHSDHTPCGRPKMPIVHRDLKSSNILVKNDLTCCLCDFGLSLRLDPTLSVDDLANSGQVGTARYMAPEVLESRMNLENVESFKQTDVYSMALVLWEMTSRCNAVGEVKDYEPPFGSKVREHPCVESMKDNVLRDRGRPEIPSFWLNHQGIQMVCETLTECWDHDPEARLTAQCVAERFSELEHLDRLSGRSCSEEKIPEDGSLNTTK

## Nc1c(N2CCN(C3CCCCC3)CC2)cc(Nc2ccc(C(=O)O)cc2)c2c1C(=O)c1ccccc1C2=O [Compound 12, 4-{[4-amino-3-(4-cyclohexylpiperazin-1-yl)-9,10-dioxo-9,10-dihydroanthracen-1-yl]amino}benzoic acid]
[1]
  pIC50: < 5.00
[2]
  pIC50: < 5.00
[3]
  pIC50: < 5.00
[4]
  pIC50: 5.30 to 5.70
[5]
  pIC50: < 5.00
[6]
  pIC50: < 5.00
[7]
  pIC50: < 5.00
[8]
  pIC50: < 5.00
[9]
  pIC50: 5.30 to 5.70
[10]
  pIC50: < 5.00
